Test results published in patent US8952024B2, “Herbicidal pyrimidone derivatives” (E I du Pont de Nemours and Company, priority 2009, dated 2015).

Assays:
Format in all cases: in vivo
[1] = tested on: windgrass (Apera spica-venti); assay: Test B postemergence plant response; conditions: Postemergence
Summary of the method: (§1)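 Plants at the 1- to 4-leaf stage (2 to 18 cm tall), grown in pots of peat moss/vermiculite medium with wetting agent and starter nutrients, received postemergence applications of test chemicals. After 13 to 15 days in a greenhouse, injury was rated visually against untreated controls on a 0 (no effect) to 100 (complete control) scale.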

[2] = tested on: chickweed (Stellaria media); assay: Test B postemergence plant response; conditions: Postemergence
Summary of the method: as §1

[3] = tested on: canarygrass (Phalaris minor); assay: Test B postemergence plant response; conditions: Postemergence
Summary of the method: as §1

[4] = tested on: winter barley (Hordeum vulgare); assay: Test B postemergence plant response; conditions: Postemergence
Summary of the method: as §1

[5] = tested on: soybean (Glycine max); assay: Test B pre-/postemergence plant response
Summary of the method: (§2)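 Visual ratings on a 0–100 scale (100 = complete control) were made versus untreated controls 13–15 days after treatment in a greenhouse. Compounds in surfactant-containing non-phytotoxic solvent were applied preemergence to seeds in loam–sand blend or postemergence to 1- to 4-leaf plants (2–18 cm).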

[6] = tested on: cocklebur (Xanthium strumarium); assay: Test B pre-/postemergence plant response; conditions: Preemergence
Summary of the method: as §2

[7] = tested on: kochia (Kochia scoparia); assay: Test B pre-/postemergence plant response
Summary of the method: as §2

[8] = tested on: johnsongrass (Sorghum halepense); assay: Test B pre-/postemergence plant response
Summary of the method: as §2

[9] = tested on: morningglory (Ipomoea coccinea); assay: Test B pre-/postemergence plant response
Summary of the method: as §2

[10] = tested on: corn (Zea mays); assay: Test B pre-/postemergence plant response
Summary of the method: as §2

[11] = tested on: giant foxtail (Setaria faberii); assay: Test B pre-/postemergence plant response
Summary of the method: as §2

[12] = tested on: wild oat (Avena fatua); assay: Test B pre-/postemergence plant response
Summary of the method: as §2

[13] = tested on: bermudagrass (Cynodon dactylon); assay: Test B pre-/postemergence plant response
Summary of the method: as §2

[14] = tested on: blackgrass (Alopecurus myosuroides); assay: Test B pre-/postemergence plant response
Summary of the method: as §2

[15] = 31 g ai/ha, 0 to 100 scale (0 no effect, 100 complete control)
[16] = 62 g ai/ha, scale 0 to 100 (0 no effect, 100 complete control)
[17] = 125 g ai/ha, scale 0 (no effect) to 100 (complete control), 13 to 15 days
[18] = 250 g ai/ha, scale 0 to 100 (0 no effect, 100 complete control), 13 to 15 days
[19] = Postemergence, 31 g ai/ha, 0 to 100 scale (0 no effect, 100 complete control)
[20] = Postemergence, 62 g ai/ha, scale 0 to 100 (0 no effect, 100 complete control)
[21] = Postemergence, 125 g ai/ha, scale 0 (no effect) to 100 (complete control), 13 to 15 days
[22] = Postemergence, 250 g ai/ha, scale 0 to 100 (0 no effect, 100 complete control), 13 to 15 days
[23] = Preemergence, 31 g ai/ha, scale 0 to 100 (0 no effect, 100 complete control)
[24] = Preemergence, 62 g ai/ha, scale 0 to 100 (0 no effect, 100 complete control)
[25] = Preemergence, 125 g ai/ha, scale 0 to 100, 0 no effect, 100 complete control
[26] = Preemergence, 250 g ai/ha, 0 to 100 scale

CCCCn1c(-c2cc(F)cc(F)c2)ncc(C(=O)C2=C(O)C3CCC(C3)C2=O)c1=O (centres unmarked) [Compound 245]
75: Soybean plant response rating [5, 26] | Plant response rating, Johnsongrass [8, 24]
5: Plant response rating, Corn [10, 24] | Plant response rating, Blackgrass [14, 24]
95: Plant response rating, Windgrass [1, 17] | Plant response rating, Canarygrass [3, 16] | Plant response rating, Barley [4, 18] | Plant response rating, Soybean [5, 19]
90: Plant response rating, Morningglory [9, 19] | Plant response rating, Foxtail, Giant [11, 25]
98: Plant response rating, Windgrass [1, 18] | Plant response rating, Soybean [5, 20] | Plant response rating, Cocklebur ([6]; 125 g ai/ha, scale 0 to 100, 0 no effect, 100 complete control) | Plant response rating, Kochia [7, 25] | Plant response rating, Foxtail, Giant [11, 19] | Plant response rating, Bermudagrass [13, 23]
0: Plant response rating, Soybean [5, 23] | Plant response rating, Cocklebur ([6]; 31 g ai/ha, scale 0 to 100 (0 no effect, 100 complete control)) | Plant response rating, Cocklebur [6, 16] | Plant response rating, Kochia [7, 23] | Plant response rating, Morningglory [9, 23] | Plant response rating, Morningglory [9, 24] | Plant response rating, Corn [10, 23] | Plant response rating, Foxtail, Giant [11, 23] | Plant response rating, Oat, Wild [12, 23] | Plant response rating, Oat, Wild [12, 24] | Plant response rating, Blackgrass [14, 23]
25: Plant response rating, Corn [10, 25]
30: Plant response rating, Oat, Wild [12, 25] | Oat, Wild plant response rating [12, 26] | Plant response rating, Blackgrass [14, 25]
70: Plant response rating, Windgrass [1, 16] | Plant response rating, Oat, Wild [12, 19] | Plant response rating, Blackgrass [14, 20]
100: Plant response rating, Chickweed [2, 17] | Plant response rating, Chickweed [2, 18] | Plant response rating, Canarygrass [3, 17] | Plant response rating, Canarygrass [3, 18] | Plant response rating, Soybean [5, 21] | Plant response rating, Soybean [5, 22] | Cocklebur plant response rating ([6]; 250 g ai/ha, 0 to 100 scale) | Plant response rating, Kochia [7, 20] | Plant response rating, Kochia [7, 21] | Plant response rating, Kochia [7, 22] | Kochia plant response rating [7, 26] | Plant response rating, Johnsongrass [8, 19] | Plant response rating, Johnsongrass [8, 20] | Plant response rating, Johnsongrass [8, 21] | Plant response rating, Johnsongrass [8, 22] | Johnsongrass plant response rating [8, 26] | Plant response rating, Morningglory [9, 20] | Plant response rating, Morningglory [9, 21] | Plant response rating, Morningglory [9, 22] | Morningglory plant response rating [9, 26] | Plant response rating, Corn [10, 19] | Plant response rating, Corn [10, 20] | Plant response rating, Corn [10, 21] | Plant response rating, Corn [10, 22] | Plant response rating, Foxtail, Giant [11, 20] | Plant response rating, Foxtail, Giant [11, 21] | Plant response rating, Foxtail, Giant [11, 22] | Foxtail, Giant plant response rating [11, 26] | Plant response rating, Oat, Wild [12, 22] | Plant response rating, Bermudagrass [13, 20] | Plant response rating, Bermudagrass [13, 21] | Plant response rating, Bermudagrass [13, 22] | Plant response rating, Bermudagrass [13, 24] | Plant response rating, Bermudagrass [13, 25] | Bermudagrass plant response rating ([13]; Preemergence, 250 g ai/ha, 0 to 100 scale, 0 no effect, 100 complete control)
45: Plant response rating, Barley [4, 15] | Plant response rating, Kochia [7, 24] | Blackgrass plant response rating [14, 26]
40: Plant response rating, Blackgrass [14, 19]
55: Plant response rating, Soybean [5, 25]
10: Plant response rating, Soybean [5, 24] | Plant response rating, Foxtail, Giant [11, 24]
80: Plant response rating, Chickweed [2, 15] | Plant response rating, Canarygrass [3, 15] | Plant response rating, Johnsongrass [8, 25] | Plant response rating, Bermudagrass [13, 19] | Plant response rating, Blackgrass [14, 21] | Plant response rating, Blackgrass [14, 22]
65: Plant response rating, Windgrass [1, 15] | Plant response rating, Johnsongrass [8, 23] | Plant response rating, Morningglory [9, 25] | Corn plant response rating [10, 26]
85: Plant response rating, Chickweed [2, 16] | Plant response rating, Barley [4, 16] | Plant response rating, Barley [4, 17] | Plant response rating, Kochia [7, 19] | Plant response rating, Oat, Wild [12, 20] | Plant response rating, Oat, Wild [12, 21]
